Assay results from patent US9545445B2, “Therapeutic drug for hypertension or prehypertension” (Teijin Pharma Limited, priority 2009, dated 2017).

Test system: SHRs (Spontaneously Hypertensive Rats)
Assay: Systolic blood pressure of spontaneously hypertensive rats by Tail-Cuff method after administration in drinking water
Format: in vivo, rat
Text: In this case, losartan (an angiotensin-receptor antagonist), enalapril (an angiotensin-converting enzyme inhibitor), amlodipine (a calcium channel blocker), and diltiazem (a calcium channel blocker) were used as representative examples of the antihypertensive agent (b). Twelve-week-old male SHRs (Spontaneously Hypertensive Rats) were used for experiment after subjecting them to quarantine for 1 week or more. At 15 or 16 weeks old, the SHRs were trained for blood pressure measurement with a Tail-Cuff method sphygmomanometer (BP-2000, Visitech systems, Napa Place, N.C., USA) for 1 to 2 weeks. After completing the training, they underwent blood pressure measurement at 17 to 18 weeks old. The animals were divided into 4 groups (10 for each) by taking care not to cause a bias in the systolic blood pressure, and the drug administration was started. Tap water was administered to a first group as a control group. A solution of each test material dissolved in tap water was administered to second to fourth groups. That is, febuxostat was administered to the second group, each antihypertensive agent of losartan, enalapril, amlodipine or diltiazem to the third group, and the mixture of febuxostat and the antihypertensive agents administered to the third group as combined administration to the fourth group. The dose of each agent was calculated from the concentration in the solution, the amount of drinking water, and the weight of the rats. After administration was carried out for 2 to 6 weeks, the value of their systolic blood pressure were measured by Tail-Cuff method.

[1] = male SHR, before administration (baseline of the group), Table 3 study, each agent 3 mg/kg/day
[2] = male SHR, 42nd day after administration, each agent 3 mg/kg/day in tap water, alone or combined, Table 2 study (tap water group 226 ± 4)
[3] = male SHR, before administration (baseline of the group), Table 2 study, each agent 3 mg/kg/day
[4] = male SHR, 14th day after administration, each agent 3 mg/kg/day in tap water, alone or combined, Table 1 study (tap water group 233 ± 4)
[5] = male SHR, before administration (baseline of the group), Table 1 study, each agent 3 mg/kg/day

CCOC(=O)C1=C(COCCN)NC(C)=C(C(=O)OC)C1c1ccccc1Cl (centres unmarked) [amlodipine]
systolic blood pressure (mean value±standard error) [1]: 228 ± 3 mmHg | systolic blood pressure (mean value±standard error) (rat, in vivo): 219 ± 3 mmHg

COc1ccc([C@@H]2Sc3ccccc3N(CCN(C)C)C(=O)[C@@H]2OC(C)=O)cc1 [diltiazem]
systolic blood pressure (mean value±standard error) (male SHR, 42nd day after administration, diltiazem 100 mg/kg/day in tap water, Table 4 study (tap water group 233 ± 3)): 231 ± 4 mmHg | systolic blood pressure (mean value±standard error) (male SHR, before administration (baseline of the group), Table 4 study, diltiazem 100 mg/kg/day): 229 ± 4 mmHg

CCOC(=O)[C@H](CCc1ccccc1)N[C@@H](C)C(=O)N1CCC[C@H]1C(=O)O [enalapril]
systolic blood pressure (mean value±standard error) [2]: 220 ± 5 mmHg | systolic blood pressure (mean value±standard error) [3]: 232 ± 5 mmHg

Cc1nc(-c2ccc(OCC(C)C)c(C#N)c2)sc1C(=O)O [febuxostat, 2-(3-cyano-4-isobutyloxyphenyl)-4-methyl-5-thiazolecarboxylic acid]
systolic blood pressure (mean value±standard error) [4]: 219 ± 4 mmHg | systolic blood pressure (mean value±standard error) (male SHR, 14th day after administration, each agent 3 mg/kg/day in tap water, alone or combined, Table 3 study (tap water group 229 ± 3)): 215 ± 4 mmHg | systolic blood pressure (mean value±standard error) [2]: 213 ± 5 mmHg | systolic blood pressure (mean value±standard error) (male SHR, 42nd day after administration, febuxostat 3 mg/kg/day in tap water, Table 4 study (tap water group 233 ± 3)): 227 ± 4 mmHg | antihypertensive action (result in words) (male SHR, administration for 2 to 6 weeks in drinking water): antihypertensive action | systolic blood pressure (mean value±standard error) [5]: 230 ± 4 mmHg | systolic blood pressure (mean value±standard error) [3]: 230 ± 3 mmHg | systolic blood pressure (mean value±standard error) [1]: 228 ± 4 mmHg | systolic blood pressure (mean value±standard error) (male SHR, before administration (baseline of the group), Table 4 study, febuxostat 3 mg/kg/day): 230 ± 5 mmHg

CCCCc1nc(Cl)c(CO)n1Cc1ccc(-c2ccccc2-c2nn[nH]n2)cc1 [losartan]
systolic blood pressure (mean value±standard error) [4]: 215 ± 2 mmHg | systolic blood pressure (mean value±standard error) [5]: 232 ± 4 mmHg
